According to ChEMBL document CHEMBL2177036, “Design and validation of bicyclic iminopyrimidinones as beta amyloid cleaving enzyme-1 (BACE1) inhibitors: conformational constraint to favor a bioactive conformation” (J Med Chem, 2012):

How the values were obtained:
[1] = AUC (0 to 6 hrs) in rat at 10 mg/kg po; format: ADME, organism-based; design: time < 6 hr, dose 10 mg/kg, route oral; details: plasma
[2] = Plasma concentration in rat at 10 mg/kg, po at 6 hrs; format: ADME, organism-based; design: dose 10 mg/kg, route oral
[3] = Cmax in rat at 10 mg/kg, po at 1 hr; format: ADME, organism-based; design: dose 10 mg/kg, route oral; details: in vivo
[4] = system: Brain; assay: Free drug concentration in rat brain at 10 mg/kg, po at 6 hrs; format: ADME, organism-based; design: dose 10 mg/kg, route oral; details: in vivo
[5] = Drug uptake in rat brain at 10 mg/kg, po at 6 hrs; format: ADME, organism-based; design: dose 10 mg/kg, route oral; details: read-out: Drug uptake
[6] = Ratio of drug uptake in brain to plasma in rat at 10 mg/kg, po at 6 hrs; format: ADME, organism-based; design: dose 10 mg/kg, route oral; details: read-out: BPR
[7] = Intrinsic clearance in cynomolgus monkey hepatocytes assessed per 10^6 cells; format: ADME, cell-based, Macaca fascicularis, Hepatocyte; details: read-out: CLH
[8] = Apparent permeability across human Caco2 cells; format: ADME, cell-based; details: Caco-2
[9] = Cmax in rat at 10 mg/kg, po; format: ADME, organism-based; design: dose 10 mg/kg, route oral; details: in vivo
[10] = AUC (0 to 24 hrs) in rat at 10 mg/kg po; format: ADME, organism-based; design: time < 24 hr, dose 10 mg/kg, route oral; details: plasma
[11] = Intrinsic clearance in human hepatocytes assessed per 10^6 cells; format: ADME, cell-based, Hepatocyte; details: read-out: CLH
[12] = Intrinsic clearance in rat hepatocytes assessed per 10^6 cells; format: ADME, cell-based, Hepatocyte; details: read-out: CLH
[13] = Oral bioavailability in rat at 10 mg/kg; format: ADME, organism-based; details: in vivo
[14] = Clearance in rat hepatocytes assessed per 10^6 cells; format: ADME, cell-based, Hepatocyte; details: read-out: CLH

Compound	AUC(0-t) at 6 h [1] [µM·h]	Drug uptake(free) [4] [nM]	concentration at 6 h [5] [nM]	Kp at 6 h [6]	further results
CC#Cc1cncc(-c2csc([C@]34CN(C(=O)c5cccc(F)c5)C[C@H]3C(=O)N(C)C(N)=N4)c2)c1	0.3				
CC#Cc1cncc(-c2csc([C@]34CN(c5cccc(OC(C)C)c5)C[C@H]3C(=O)N(C)C(N)=N4)c2)c1	3.7				
CN1C(=O)[C@@H]2CN(c3ncccn3)C[C@]2(c2cc(-c3cccc(C#N)c3)cs2)N=C1N	2	1	58	1	concentration at 6 h [2]: 60 nM; Cmax [3]: 1000 nM
CN1C(=N)N[C@@]2(c3cc(-c4cccc(C#N)c4)cs3)CN(c3ncc(Cl)cn3)C[C@H]2C1=O	90	4	965	0.1	
CN1C(=N)N[C@@]2(c3cc(-c4cccc(C#N)c4)cs3)CN(c3ncc(F)cn3)C[C@H]2C1=O	31	11	463	0.1	hepatocyte CLint [7]: 5.7 µL/min/1e6 cells; Papp [8]: 15.1 ×10⁻⁶ cm/s; Cmax [9]: 6100 nM; AUC(0-t) at 24 h [10]: 31 µM·h; hepatocyte CLint [11]: 2 µL/min/1e6 cells; hepatocyte CLint [12]: 13.5 µL/min/1e6 cells; bioavailability [13]: 97%
CN1C(=N)N[C@@]2(c3cc(-c4ccc(F)c(C#N)c4)cs3)CN(C(=O)c3cccc(F)c3)C[C@H]2C1=O	0.3				hepatocyte CLint [14]: 46 µL/min/1e6 cells
Cc1cnc(N2C[C@H]3C(=O)N(C)C(=N)N[C@@]3(c3cc(-c4cccc(C#N)c4)cs3)C2)nc1	111		232	< 0.1	
CN1C(=O)[C@@H]2CN(C(=O)c3ccccc3)C[C@]2(c2cc(-c3cccc(C#N)c3)cs2)N=C1N	0.024				
